# Patent US7977369B2, “Medical compositions for intravesical treatment of bladder cancer” (Spectrum Pharmaceuticals, Inc., priority 2001, dated 2011)
# Like-named read-outs stand apart in the source and are kept apart here.
# Legend:
# recombinant human NQO1 = target: T1, recombinant human NQO1 (Homo sapiens, UniProt P15559); assay: Substrate specificity: reduction of EO9 by NQO1, cytochrome c reporter; format: biochemical
# T1 construct: made in house; host or cells: E. coli (pKK233-2 plasmid, IPTG induction)
# T1 sequence (P15559 whole entry): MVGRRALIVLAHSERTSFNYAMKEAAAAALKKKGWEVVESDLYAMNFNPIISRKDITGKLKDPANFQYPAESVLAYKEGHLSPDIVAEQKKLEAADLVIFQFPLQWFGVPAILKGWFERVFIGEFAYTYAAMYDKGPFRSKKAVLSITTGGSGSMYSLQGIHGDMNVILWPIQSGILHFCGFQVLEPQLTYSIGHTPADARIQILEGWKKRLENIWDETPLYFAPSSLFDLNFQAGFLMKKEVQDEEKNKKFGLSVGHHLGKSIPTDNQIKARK
# Description: Substrate specificity. The influence of acidic pHe on substrate specificity for purified human NQ01 was determined as described previously (Phillips 1996, Walton et al, 1991). NQ01 mediated reduction of the quinone to the hydroquinone species is difficult to detect by conventional assays thereby necessitating the use of a reporter signal generating step. In this assay, the hydroquinone acts as an intermediate electron acceptor which subsequently reduces cytochrome c which can readily be detected spectrophotometrically. Recombinant human NQ01 was derived from E. coli transformed with the pKK233-2 expression plasmid containing the full length cDNA sequence for human NQ01 isolated from the (Beall et al, 1994). Following IPTG induction, NQO1 was purified by cybacron blue affinity chromatography, details of which are described elsewhere (Phillips, 1996). […] Reduction of EO9 by recombinant human NQO1 was determined at pH 6.0 and 7.4 by measuring the rate of reduction of cytochrome c was measured at 550 nm on a Beckman DU 650 spectrophotometer according to previously published methods (Phillips, 1996).
# [1] = Stability of EO9 at acidic pH; settings: buffer
# [2] = Solubility of EO9 in formulation vehicle and water
# [3] = test system: HT-29 multicell spheroids; assay: Chemosensitivity of HT-29 multicell spheroids; format: cell-based, human; settings: for IC50: Homo sapiens, HT-29, 1 h, spheroids
# Description: HT-29 multicell spheroids were prepared by seeding 5×10^5 cells into T25 flasks which had been based coated with agar (1% w/v) and incubated for 24 h at 37° C. Immature spheroids were then transferred to a spinner flask (Techne) containing 250 ml of RPMI 1640 growth medium and spheroids were kept in suspension by stirring at 50 rpm. When spheroids reached a diameter of approximately 500 Am, they were harvested for chemosensitivity studies. Multicell spheroids were exposed to a range of EO9 concentrations at pHe 6.0 and 7.4 for one hour at 37° C. Following drug incubation, spheroids were washed twice in HBSS prior to dissagregation into single cells using trypsin EDTA. Disaggregated spheroids were then washed in HBSS and then plated into 96 well plates (1×10^3 cells per well) and incubated at 37° C. for four days. Chemosensitivity was assessed using the NM assay as described elsewhere (Phillips et al, 1992).
# [4] = test system: NSCLC, gastric, breast, pancreatic and colon cancers; settings: phase II trials; cited from earlier work
# [5] = test system: NQ01 rich and deficient tumors; settings: intratumoural administration; cited from earlier work
# [6] = in humans; cited from earlier work
# H460 cells = assay: Response of H460 cells to EO9 in the presence or absence of FAA (2 mM); format: cell-based, human; settings: for IC50: Homo sapiens, NCI-H460, H460 cells
# Description: Briefly, H460 cells (NQO1 rich) were plated into 96 well plates at a density of 2×10^3 cells per well. Following an overnight incubation at 37° C., medium was replaced with fresh medium (pH 7.4) containing a non-toxic concentration of FAA (2 mM) and incubated for one hour at 37° C. Medium was then replaced with fresh medium containing EO9 (range of drug concentrations) and FAA (2 mM) at either pHe 7.4 or 6.0. Following a further one hour incubation at 37° C., cells were washed twice with HBSS and incubated at 37° C. in growth medium for five days. Chemosensitivity was determined by the NM assay as described above and results were expressed in terms of IC50 values, selectivity ratios (IC50 at pHe 7.4/IC50 at pHe 6.0) and protection ratios (ICSO FAA/EO9 combinations/IC50 for EO9 alone).
# [7] = phase I clinical trials; cited from earlier work
# BE = assay: Chemosensitivity, one hour drug exposure, MTT assay, monolayer; format: cell-based, human
# Excerpt: (§1) Cell culture and chemosensitivity studies. […] H460 (human NSCLC) cell line was obtained from the American Type Culture Collection (ATCC). HT-29 (human colon carcinoma), RT112/83 (human bladder carcinoma epithelial), EJ138 (human bladder carcinoma) and T24/83 (human bladder transitional cell carcinoma) cell lines were obtained from the European Collection of Animal Cell Cultures (ECACC). A2780 (human ovarian carcinoma) and BE (human colon carcinoma) cells were gifts from Dr T Ward (Paterson Institute, Manchester, UK). All cell lines were maintained as monolayer cultures in RPNII 1640 culture medium supplemented with fetal calf serum (10%), sodium pyruvate (2 mM), L-glutamine (2 mM), penicillin/streptomycin (50 IU/ml/50 jug/ml) and buffered with HEPES (25 mK). All cell culture materials were purchased from Gibco BRL (Paisley, UK). […] Calibration curves were conducted over a broad range of pH values in culture medium (pH 3.5 to 11) and the stability of the pH conditions monitored over a one hour incubation period at 37° C.
# A2780 = assay: as above; format: cell-based, human
# Excerpt: as §1
# RT112 = assay: as above; format: cell-based, human
# Excerpt: as §1
# H460 = assay: as above; format: cell-based, human
# Excerpt: as §1
# HT-29 = assay: as above; format: cell-based, human
# Excerpt: as §1
# EJ138 = assay: as above; format: cell-based, human
# Excerpt: as §1
# T24/83 = assay: as above; format: cell-based, human
# Excerpt: as §1
# histocultures = settings: cited from earlier work
smiles,measurement,setting,value
"Cn1c(/C=C/CO)c(CO)c2c1C(=O)C=C(N1CC1)C2=O [EO9, 5-(1-aziridinyl)-3-(hydroxymethyl)-2-[(E)-3-hydroxyprop-1-enyl]-1-methyl-1H-indole-4,7-dione]",rate of reduction of EO9 by purified human NQO1,recombinant human NQO1; pH 6.0,21.30±1.50 nmol cytochrome c reduced/min/mg protein
same,"specific activity, cytochrome c reduced/min/mg protein",recombinant human NQO1; pH 6.0,21.30±1.5 pmol cytochrome c reduced/min/mg protein
same,rate of reduction of EO9 by purified human NQO1,recombinant human NQO1; pH 7.4,21.10±2.30 nmol cytochrome c reduced/min/mg protein
same,"specific activity, cytochrome c reduced/min/mg protein",recombinant human NQO1; pH 7.4,21.10±2.3 pmol cytochrome c reduced/min/mg protein
same,half-life,[1]; pH 5.5,37 min
same,half-life,[1]; pH 6,150 min
same,solubility,"[2]; tert-butanol formulation vehicle, aqueous with cosolvent or surfactant or cyclodextrin",≥ 9500 µg/mL
same,solubility,[2]; water,~200 µg/mL
same,ratio of IC50 values for spheroids to monolayers,"[3]; HT-29, pHe 6.0",341
same,ratio of IC50 values for spheroids to monolayers,"[3]; HT-29, pHe 7.4",202
same,IC50,"[3]; pHe 6.0, one hour exposure",9890 ± 890 nM
same,IC50,"[3]; pHe 7.4, one hour exposure",24200 ± 3290 nM
same,cells killed in spheroids,[3]; at higher doses,> 90%
same,clinical activity,[4],no activity
same,tumor growth delay,[5],significant growth delays
same,plasma elimination half-life,[6],10 min
same,"SR = Selectivity Ratio, IC50 at pHe 7.4 divided by IC50 at pHe 6.0","H460 cells; H460 cells, with or without FAA 2 mM",6.31
same,IC50,"H460 cells; pHe 6.0, with or without FAA 2 mM",9.5 ± 2.6 nM
same,IC50,"H460 cells; pHe 7.4, with or without FAA 2 mM",60 ± 8.1 nM
same,clinical response,[7],three partial remissions
same,SR (selectivity ratio) = IC50 at pH 7.4/IC50 at pH 6.0,BE; BE,4.07
same,IC50,"BE; Homo sapiens, 1 h, read-out: IC50 pHe 6.0",1300 ± 75 nM
same,IC50,"BE; Homo sapiens, 1 h, read-out: IC50 pHe 7.4",5300 ± 169 nM
same,SR (selectivity ratio) = IC50 at pH 7.4/IC50 at pH 6.0,A2780; A2780,3.92
same,IC50,"A2780; Homo sapiens, A2780, 1 h, read-out: IC50 pHe 6.0",51 ± 14 nM
same,IC50,"A2780; Homo sapiens, A2780, 1 h, read-out: IC50 pHe 7.4",200 ± 50 nM
same,IC50,"RT112; Homo sapiens, RT-112, 1 h, read-out: IC50 pHe 6.0",61 ± 13 nM
same,IC50,"RT112; Homo sapiens, RT-112, 1 h, read-out: IC50 pHe 7.4",1050 ± 75 nM
same,SR (selectivity ratio) = IC50 at pH 7.4/IC50 at pH 6.0,RT112; RT112,17.21
same,SR (selectivity ratio) = IC50 at pH 7.4/IC50 at pH 6.0,H460; H460,6.31
same,IC50,"H460; Homo sapiens, NCI-H460, 1 h, read-out: IC50 pHe 6.0",9.5 ± 2 nM
same,IC50,"H460; Homo sapiens, NCI-H460, 1 h, read-out: IC50 pHe 7.4",60 ± 10 nM
same,SR (selectivity ratio) = IC50 at pH 7.4/IC50 at pH 6.0,HT-29; HT-29,4.13
same,IC50,"HT-29; Homo sapiens, HT-29, 1 h, read-out: IC50 pHe 6.0",29 ± 10 nM
same,IC50,"HT-29; Homo sapiens, HT-29, 1 h, read-out: IC50 pHe 7.4",120 ± 53 nM
same,SR (selectivity ratio) = IC50 at pH 7.4/IC50 at pH 6.0,EJ138; EJ138,7.94
same,IC50,"EJ138; Homo sapiens, EJ138, 1 h, read-out: IC50 pHe 6.0",39 ± 7 nM
same,IC50,"EJ138; Homo sapiens, EJ138, 1 h, read-out: IC50 pHe 7.4",310 ± 95 nM
same,IC50,"T24/83; Homo sapiens, T24/83, 1 h, read-out: IC50 pHe 6.0",60 ± 18 nM
same,IC50,"T24/83; Homo sapiens, T24/83, 1 h, read-out: IC50 pHe 7.4",290 ± 65 nM
same,SR (selectivity ratio) = IC50 at pH 7.4/IC50 at pH 6.0,T24/83; T24/83,4.83
"CO[C@@]12[C@H](COC(N)=O)C3=C(C(=O)C(C)=C(N)C3=O)N1C[C@@H]1N[C@@H]12 [MMC, Mitomycin C, reference compound]",difference in toxicity between physiological and acidic pHe,histocultures,no difference in toxicity
same,IC50,"BE; BE, pHe 6.0, one hour exposure, read-out: IC50 pHe 6.0",4400 ± 215 nM
same,IC50,"BE; BE, pHe 7.4, one hour exposure, read-out: IC50 pHe 7.4",7000 ± 192 nM
same,IC50,"A2780; A2780, pHe 6.0, one hour exposure, read-out: IC50 pHe 6.0",1400 ± 130 nM
same,IC50,"A2780; A2780, pHe 7.4, one hour exposure, read-out: IC50 pHe 7.4",2400 ± 340 nM
same,IC50,"RT112; RT112, pHe 6.0, one hour exposure, read-out: IC50 pHe 6.0",2000 ± 500 nM
same,IC50,"RT112; RT112, pHe 7.4, one hour exposure, read-out: IC50 pHe 7.4",3350 ± 250 nM
same,IC50,"H460; H460, pHe 6.0, one hour exposure, read-out: IC50 pHe 6.0",220 ± 130 nM
same,IC50,"H460; H460, pHe 7.4, one hour exposure, read-out: IC50 pHe 7.4",900 ± 200 nM
same,IC50,"HT-29; HT-29, pHe 6.0, one hour exposure, read-out: IC50 pHe 6.0",500 ± 240 nM
same,IC50,"HT-29; HT-29, pHe 7.4, one hour exposure, read-out: IC50 pHe 7.4",1050 ± 210 nM
same,IC50,"EJ138; EJ138, pHe 6.0, one hour exposure, read-out: IC50 pHe 6.0",1400 ± 250 nM
same,IC50,"EJ138; EJ138, pHe 7.4, one hour exposure, read-out: IC50 pHe 7.4",1600 ± 200 nM
same,IC50,"T24/83; T24/83, pHe 6.0, one hour exposure, read-out: IC50 pHe 6.0",2100 ± 800 nM
same,IC50,"T24/83; T24/83, pHe 7.4, one hour exposure, read-out: IC50 pHe 7.4",2150 ± 93 nM
